Measurements from PMC6934455, “Molecular Dynamics model of peptide-protein conjugation: case study of covalent complex between Sos1 peptide and N-terminal SH3 domain from Grb2” (Scientific Reports, 2019).

Target: T1, C32S Grb2 N-SH3 (Homo sapiens, UniProt P62993, C32S)
T1 construct: encoding residues 2–59 of human Grb2; His6 (N); host or cells: E. coli Rosetta DE3 (Novagen)
Assay: 1HN,15N-HSQC NMR titration, noncovalent binding
Excerpt: For quantitative analysis, we have selected a group of 8 well-resolved peaks showing substantial titration effects. The two-dimensional HSQC titration data for these peaks have been fitted using the program TITAN[39] on per-residue basis, as well as collectively (illustrated in Fig. 1D; for complete summary see Fig. S1).
pET-28 vectors for Grb2 N-SH3 (WT and C32S) encoding residues 2–59 of human Grb2 have been purchased from GenScript. The protein additionally containing N-terminal His6-tag was expressed in Rosetta DE3 cells (Novagen) using minimal M9 media. ^15N-NH4Cl and ^13C-glucose supplements have been used for isotope labeling. Protein expression was induced when OD600 reached 0.8. After 16 hours of incubation at 37 °C, cells were harvested, suspended in the standard lysis buffer (containing 2 mM of DTT) and then homogenized by SPEX SamplePrep 6870 Freezer/Mill followed by three rounds of sonication on ice. The sample was purified using Ni-affinity and size-exclusion chromatography (columns GE HisTrap HP and GE Sephacryl S-200 HR).
All measurements were conducted at 25 °C using 500 MHz Bruker Avance III spectrometer equipped with TBI room temperature probe. […] The buffer additionally contained 150 mM NaCl.
The peptide concentration was incremented from 0 to 160 μM in a step of 20 μM and then brought to 240 μM. […] The results were analyzed using the program TITAN[39].

T1 sequence (P62993 2-59 C32S): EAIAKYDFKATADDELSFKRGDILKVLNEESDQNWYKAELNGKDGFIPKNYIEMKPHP

CC(C)[C@H](N)C(=O)N1CCC[C@H]1C(=O)N1CCC[C@H]1C(=O)N1CCC[C@H]1C(=O)N[C@H](C(=O)N1CCC[C@H]1C(=O)N1CCC[C@H]1C(=O)N[C@@H](CCCNC(=N)N)C(=O)N[C@@H](CCCNC(=N)N)C(=O)N[C@@H](CCCNC(=N)N)C(=O)N[C@@H](CCCCNC(=O)CCl)C(=O)O)C(C)C [Sos1-X′]
Kd: 4.9 µM
